Measurements: ChEMBL document CHEMBL1201862, “PubChem BioAssay data set” (2004)
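Tested at 5 concentrations; 48 h exposure; 96-well plates; endpoints linearly interpolated, else capped at highest concentration. GI50 is the concentration that inhibits growth by half.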 Active and inactive are the calls of the source. Rule as the data show it: active = GI50 up to about 1.1 µM and inactive = higher.

Columns and labels:
Assay in all cases: NCI tumour cell line growth inhibition, 48 h
786-0 = system: 786-0
A498 = system: A498
A549 = system: A549
ACHN = system: ACHN
BT-549 = system: BT-549
CAKI-1 = system: CAKI-1
CCRF-CEM = system: CCRF-CEM
COLO 205 = system: COLO 205
DU-145 = system: DU-145
EKVX = system: EKVX
HCC 2998 = system: HCC 2998
HCT-116 = system: HCT-116
HCT-15 = system: HCT-15
HOP-62 = system: HOP-62
HOP-92 = system: HOP-92
HT-29 = system: HT-29
Hs-578T = system: Hs-578T
IGROV-1 = system: IGROV-1
K562 = system: K562
KM12 = system: KM12
LOX IMVI = system: LOX IMVI
M14 = system: M14
MCF7 = system: MCF7
MDA-MB-231 = system: MDA-MB-231
MDA-MB-435 = system: MDA-MB-435
MDA-N = system: MDA-N
MOLT-4 = system: MOLT-4
Malme-3M = system: Malme-3M
NCI-H226 = system: NCI-H226
NCI-H23 = system: NCI-H23
NCI-H460 = system: NCI-H460
NCI/ADR-RES = system: NCI/ADR-RES
OVCAR-3 = system: OVCAR-3
OVCAR-4 = system: OVCAR-4
OVCAR-5 = system: OVCAR-5
OVCAR-8 = system: OVCAR-8
PC-3 = system: PC-3
SF-295 = system: SF-295
SF-539 = system: SF-539
SK-MEL-28 = system: SK-MEL-28
SK-MEL-2 = system: SK-MEL-2
SK-MEL-5 = system: SK-MEL-5
SN12C = system: SN12C
SNB-19 = system: SNB-19
SNB-75 = system: SNB-75
SR = system: SR
SW-620 = system: SW-620
T47D = system: T47D
TK-10 = system: TK-10
U-251 = system: U-251
UACC-257 = system: UACC-257
UACC-62 = system: UACC-62
UO-31 = system: UO-31
HL-60 = system: HL-60
RPMI-8226 = system: RPMI-8226
RXF 393 = system: RXF 393
SF-268 = system: SF-268
SK-OV-3 = system: SK-OV-3
NCI-H522 = system: NCI-H522

## Cc1ccc(Cc2n[nH]c(=O)n2N2C(=O)c3ccccc3C2=O)cc1
786-0
  GI50: > 100 µM (inactive)
A498
  GI50: > 100 µM (inactive)
A549
  GI50: > 100 µM (inactive)
ACHN
  GI50: > 100 µM (inactive)
BT-549
  GI50: > 100 µM (inactive)
CAKI-1
  GI50: > 100 µM (inactive)
CCRF-CEM
  GI50: > 100 µM (inactive)
COLO 205
  GI50: > 100 µM (inactive)
DU-145
  GI50: > 100 µM (inactive)
EKVX
  GI50: > 100 µM (inactive)
HCC 2998
  GI50: > 100 µM (inactive)
HCT-116
  GI50: > 100 µM (inactive)
HCT-15
  GI50: > 100 µM
HOP-62
  GI50: > 100 µM (inactive)
HOP-92
  GI50: > 100 µM (inactive)
HT-29
  GI50: > 100 µM (inactive)
Hs-578T
  GI50: > 100 µM (inactive)
IGROV-1
  GI50: > 100 µM (inactive)
K562
  GI50: > 100 µM (inactive)
KM12
  GI50: > 100 µM (inactive)
LOX IMVI
  GI50: > 100 µM (inactive)
M14
  GI50: > 100 µM (inactive)
MCF7
  GI50: > 100 µM (inactive)
MDA-MB-231
  GI50: > 100 µM (inactive)
MDA-MB-435
  GI50: > 100 µM (inactive)
MDA-N
  GI50: > 100 µM (inactive)
MOLT-4
  GI50: > 100 µM (inactive)
Malme-3M
  GI50: > 100 µM (inactive)
NCI-H226
  GI50: > 100 µM (inactive)
NCI-H23
  GI50: > 100 µM (inactive)
NCI-H460
  GI50: > 100 µM (inactive)
NCI/ADR-RES
  GI50: > 100 µM (inactive)
OVCAR-3
  GI50: > 100 µM (inactive)
OVCAR-4
  GI50: > 100 µM (inactive)
OVCAR-5
  GI50: > 100 µM (inactive)
OVCAR-8
  GI50: > 100 µM (inactive)
PC-3
  GI50: > 100 µM (inactive)
SF-295
  GI50: > 100 µM (inactive)
SF-539
  GI50: > 100 µM (inactive)
SK-MEL-28
  GI50: > 100 µM (inactive)
SK-MEL-2
  GI50: > 100 µM (inactive)
SK-MEL-5
  GI50: > 100 µM (inactive)
SN12C
  GI50: > 100 µM (inactive)
SNB-19
  GI50: > 100 µM (inactive)
SNB-75
  GI50: 91.4 µM (inactive)
SR
  GI50: > 100 µM (inactive)
SW-620
  GI50: > 100 µM (inactive)
T47D
  GI50: > 100 µM (inactive)
TK-10
  GI50: > 100 µM (inactive)
U-251
  GI50: > 100 µM (inactive)
UACC-257
  GI50: > 100 µM (inactive)
UACC-62
  GI50: > 100 µM (inactive)
UO-31
  GI50: > 100 µM (inactive)

## CN1CC=C(OP(=O)(NCc2ccccc2)N(CCCl)CCCl)CC1 (stereo unspecified)
786-0
  GI50: > 100 µM (inactive)
A498
  GI50: > 100 µM (inactive)
ACHN
  GI50: > 100 µM (inactive)
BT-549
  GI50: > 100 µM (inactive)
CAKI-1
  GI50: > 100 µM (inactive)
CCRF-CEM
  GI50: > 100 µM (inactive)
COLO 205
  GI50: > 100 µM (inactive)
DU-145
  GI50: > 100 µM (inactive)
EKVX
  GI50: > 100 µM (inactive)
HCC 2998
  GI50: > 100 µM (inactive)
HCT-116
  GI50: > 100 µM (inactive)
HCT-15
  GI50: > 100 µM
HL-60
  GI50: > 100 µM (inactive)
HOP-62
  GI50: > 100 µM (inactive)
HOP-92
  GI50: > 100 µM (inactive)
HT-29
  GI50: 61.8 µM (inactive)
Hs-578T
  GI50: > 100 µM (inactive)
IGROV-1
  GI50: > 100 µM (inactive)
K562
  GI50: > 100 µM (inactive)
KM12
  GI50: > 100 µM (inactive)
LOX IMVI
  GI50: > 100 µM (inactive)
M14
  GI50: > 100 µM (inactive)
MCF7
  GI50: > 100 µM (inactive)
MDA-MB-231
  GI50: > 100 µM (inactive)
MDA-MB-435
  GI50: > 100 µM (inactive)
MDA-N
  GI50: > 100 µM (inactive)
MOLT-4
  GI50: > 100 µM (inactive)
Malme-3M
  GI50: > 100 µM (inactive)
NCI-H226
  GI50: > 100 µM (inactive)
NCI-H23
  GI50: > 100 µM (inactive)
NCI-H460
  GI50: > 100 µM (inactive)
NCI/ADR-RES
  GI50: > 100 µM (inactive)
OVCAR-3
  GI50: > 100 µM (inactive)
OVCAR-4
  GI50: > 100 µM (inactive)
OVCAR-5
  GI50: > 100 µM (inactive)
OVCAR-8
  GI50: > 100 µM (inactive)
PC-3
  GI50: > 100 µM (inactive)
RPMI-8226
  GI50: > 100 µM (inactive)
RXF 393
  GI50: 40.9 µM (inactive)
SF-268
  GI50: > 100 µM (inactive)
SF-295
  GI50: > 100 µM (inactive)
SF-539
  GI50: > 100 µM (inactive)
SK-MEL-28
  GI50: 95.3 µM (inactive)
SK-MEL-2
  GI50: > 100 µM (inactive)
SK-OV-3
  GI50: > 100 µM (inactive)
SN12C
  GI50: > 100 µM (inactive)
SNB-19
  GI50: > 100 µM (inactive)
SNB-75
  GI50: 89.3 µM (inactive)
SR
  GI50: > 100 µM (inactive)
SW-620
  GI50: > 100 µM (inactive)
T47D
  GI50: > 100 µM (inactive)
TK-10
  GI50: > 100 µM (inactive)
U-251
  GI50: > 100 µM (inactive)
UACC-257
  GI50: 70.5 µM (inactive)
UACC-62
  GI50: > 100 µM (inactive)
UO-31
  GI50: > 100 µM (inactive)

## COc1ccc(C(SCCO)(c2ccccc2)c2ccccc2)cc1
786-0
  GI50: 12.5 µM (inactive)
A498
  GI50: 17.2 µM (inactive)
A549
  GI50: 12.2 µM (inactive)
ACHN
  GI50: 14.1 µM (inactive)
BT-549
  GI50: 16.6 µM (inactive)
CAKI-1
  GI50: 15.5 µM (inactive)
CCRF-CEM
  GI50: 15.5 µM (inactive)
COLO 205
  GI50: 14 µM (inactive)
DU-145
  GI50: 13.6 µM (inactive)
EKVX
  GI50: 12.9 µM (inactive)
HCC 2998
  GI50: 16.4 µM (inactive)
HCT-116
  GI50: 10.9 µM (inactive)
HCT-15
  GI50: 11.9 µM
HL-60
  GI50: 22.8 µM (inactive)
HOP-62
  GI50: 15.4 µM (inactive)
HOP-92
  GI50: 11 µM (inactive)
HT-29
  GI50: 14.5 µM (inactive)
Hs-578T
  GI50: 22.3 µM (inactive)
K562
  GI50: 12.9 µM (inactive)
KM12
  GI50: 14.1 µM (inactive)
LOX IMVI
  GI50: 18.1 µM (inactive)
M14
  GI50: 7.08 µM (inactive)
MCF7
  GI50: 10.5 µM (inactive)
MDA-MB-231
  GI50: 14.3 µM (inactive)
MDA-MB-435
  GI50: 10.5 µM (inactive)
MDA-N
  GI50: 8.26 µM (inactive)
MOLT-4
  GI50: 15.7 µM (inactive)
Malme-3M
  GI50: 18.9 µM (inactive)
NCI-H226
  GI50: 12.7 µM (inactive)
NCI-H23
  GI50: 16.9 µM (inactive)
NCI-H460
  GI50: 13.3 µM (inactive)
NCI-H522
  GI50: 13.6 µM (inactive)
NCI/ADR-RES
  GI50: 14.8 µM (inactive)
OVCAR-3
  GI50: 14 µM (inactive)
OVCAR-4
  GI50: 15.6 µM (inactive)
OVCAR-5
  GI50: 16.9 µM (inactive)
OVCAR-8
  GI50: 17.9 µM (inactive)
PC-3
  GI50: 11.9 µM (inactive)
RXF 393
  GI50: 16.1 µM (inactive)
SF-268
  GI50: 14.6 µM (inactive)
SF-295
  GI50: 13.4 µM (inactive)
SF-539
  GI50: 15.6 µM (inactive)
SK-MEL-28
  GI50: 17.1 µM (inactive)
SK-MEL-2
  GI50: 13.1 µM (inactive)
SK-MEL-5
  GI50: 10.1 µM (inactive)
SK-OV-3
  GI50: 16.5 µM (inactive)
SN12C
  GI50: 12.8 µM (inactive)
SNB-19
  GI50: 15.7 µM (inactive)
SNB-75
  GI50: 12.2 µM (inactive)
SR
  GI50: 21.6 µM (inactive)
SW-620
  GI50: 20.6 µM (inactive)
T47D
  GI50: 9.84 µM (inactive)
TK-10
  GI50: 18.8 µM (inactive)
U-251
  GI50: 13.1 µM (inactive)
UACC-257
  GI50: 17.4 µM (inactive)
UACC-62
  GI50: 14.3 µM (inactive)
UO-31
  GI50: 14.9 µM (inactive)
